In patent publication US12492188B2, “1H-benzo[D]imidazole derivatives as TLR9 inhibitors for the treatment of fibrosis” (BRISTOL-MYERS SQUIBB COMPANY, priority 2020, dated 2025):
Where two headings read alike, the source gives them in different places.

Assays:
Type in all cases: cell-based
human TLR9 = molecular target: T1, human TLR9 (Homo sapiens, UniProt Q9NR96); assay: TLR9 inhibition reporter assay (HEK-Blue cells, secreted embryonic alkaline phosphatase reporter)
T1 construct: host or cells: HEK-Blue cells (HEK293-derived reporter line)
T1 sequence (Q9NR96 26-1032): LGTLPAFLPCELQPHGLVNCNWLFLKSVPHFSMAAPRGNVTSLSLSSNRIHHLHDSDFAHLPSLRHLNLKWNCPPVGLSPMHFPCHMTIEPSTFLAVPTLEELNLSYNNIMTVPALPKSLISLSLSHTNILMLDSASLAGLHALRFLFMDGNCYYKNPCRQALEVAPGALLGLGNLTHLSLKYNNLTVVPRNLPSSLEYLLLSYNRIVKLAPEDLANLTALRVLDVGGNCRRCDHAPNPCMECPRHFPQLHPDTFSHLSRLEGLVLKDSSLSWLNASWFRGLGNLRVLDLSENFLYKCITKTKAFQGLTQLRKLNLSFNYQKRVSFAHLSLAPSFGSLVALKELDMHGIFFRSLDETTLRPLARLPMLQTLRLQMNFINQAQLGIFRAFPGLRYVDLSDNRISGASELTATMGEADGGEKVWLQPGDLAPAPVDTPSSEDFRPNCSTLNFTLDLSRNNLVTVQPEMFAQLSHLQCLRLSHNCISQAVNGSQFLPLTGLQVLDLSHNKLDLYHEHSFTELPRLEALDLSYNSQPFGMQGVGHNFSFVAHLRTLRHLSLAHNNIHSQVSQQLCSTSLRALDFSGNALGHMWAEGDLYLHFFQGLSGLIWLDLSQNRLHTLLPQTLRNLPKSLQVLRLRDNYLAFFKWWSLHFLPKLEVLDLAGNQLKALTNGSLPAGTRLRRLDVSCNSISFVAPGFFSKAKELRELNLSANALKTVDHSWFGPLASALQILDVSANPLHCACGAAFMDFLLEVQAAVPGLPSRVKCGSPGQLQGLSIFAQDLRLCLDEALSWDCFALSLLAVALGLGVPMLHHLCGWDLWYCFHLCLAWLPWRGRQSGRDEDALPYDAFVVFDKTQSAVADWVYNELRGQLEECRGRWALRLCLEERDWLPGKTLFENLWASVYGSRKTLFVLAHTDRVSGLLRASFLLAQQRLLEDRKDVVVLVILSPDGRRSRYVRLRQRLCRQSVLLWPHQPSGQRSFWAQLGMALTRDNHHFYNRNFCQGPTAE
In short: (§1)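 Inhibitors are tested in dose response (0.05 nM–50 μM) on HEK-Blue reporter cells expressing human TLR7, TLR8 or TLR9. After 30 min at room temperature, each line is stimulated with its own agonist (gardiquimod 7.5 μM, R848 15.9 μM or ODN2006 5 nM, final) and SEAP is measured 22 h later.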

human TLR7 = molecular target: T2, human TLR7 (Homo sapiens, UniProt Q9NYK1); assay: TLR7 inhibition reporter assay (HEK-Blue cells, secreted embryonic alkaline phosphatase reporter); settings: HEK-Blue cells overexpressing human TLR7, stimulated with gardiquimod 7.5 μM; read-out: TLR 7 IC50
T2 construct: host or cells: HEK-Blue cells (HEK293-derived reporter line)
T2 sequence (Q9NYK1 27-1049): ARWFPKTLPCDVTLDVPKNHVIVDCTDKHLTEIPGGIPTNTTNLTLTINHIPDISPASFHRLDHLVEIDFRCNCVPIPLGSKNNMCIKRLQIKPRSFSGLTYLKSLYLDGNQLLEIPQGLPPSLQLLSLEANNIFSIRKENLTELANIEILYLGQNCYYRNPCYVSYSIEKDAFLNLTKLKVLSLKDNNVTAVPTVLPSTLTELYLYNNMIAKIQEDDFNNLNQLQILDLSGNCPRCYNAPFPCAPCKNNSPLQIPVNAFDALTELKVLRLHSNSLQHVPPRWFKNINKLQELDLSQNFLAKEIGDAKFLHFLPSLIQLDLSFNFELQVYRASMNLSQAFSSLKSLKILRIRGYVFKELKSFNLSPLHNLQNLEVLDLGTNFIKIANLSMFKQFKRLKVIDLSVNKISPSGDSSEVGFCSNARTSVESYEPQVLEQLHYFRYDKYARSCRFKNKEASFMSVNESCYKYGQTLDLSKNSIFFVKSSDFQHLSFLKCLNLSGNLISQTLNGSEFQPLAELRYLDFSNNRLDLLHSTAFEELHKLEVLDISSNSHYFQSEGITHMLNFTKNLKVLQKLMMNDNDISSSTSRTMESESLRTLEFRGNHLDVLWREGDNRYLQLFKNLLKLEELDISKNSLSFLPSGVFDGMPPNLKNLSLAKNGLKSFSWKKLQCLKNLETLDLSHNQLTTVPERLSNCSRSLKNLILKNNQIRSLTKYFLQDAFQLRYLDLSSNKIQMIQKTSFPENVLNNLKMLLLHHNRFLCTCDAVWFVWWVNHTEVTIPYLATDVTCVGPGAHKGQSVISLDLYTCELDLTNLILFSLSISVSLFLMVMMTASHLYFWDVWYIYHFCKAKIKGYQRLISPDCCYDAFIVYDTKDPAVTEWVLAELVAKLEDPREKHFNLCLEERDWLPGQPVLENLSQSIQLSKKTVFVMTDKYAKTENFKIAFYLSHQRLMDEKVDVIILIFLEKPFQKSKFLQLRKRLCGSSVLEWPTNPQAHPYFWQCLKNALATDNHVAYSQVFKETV
In short: as §1

human TLR8 = molecular target: T3, human TLR8 (Homo sapiens, UniProt Q9NR97); assay: TLR8 inhibition reporter assay (HEK-Blue cells, secreted embryonic alkaline phosphatase reporter); settings: HEK-Blue cells overexpressing human TLR8, stimulated with R848 15.9 μM; read-out: TLR 8 IC50
T3 construct: host or cells: HEK-Blue cells (HEK293-derived reporter line)
T3 sequence (Q9NR97 27-1041): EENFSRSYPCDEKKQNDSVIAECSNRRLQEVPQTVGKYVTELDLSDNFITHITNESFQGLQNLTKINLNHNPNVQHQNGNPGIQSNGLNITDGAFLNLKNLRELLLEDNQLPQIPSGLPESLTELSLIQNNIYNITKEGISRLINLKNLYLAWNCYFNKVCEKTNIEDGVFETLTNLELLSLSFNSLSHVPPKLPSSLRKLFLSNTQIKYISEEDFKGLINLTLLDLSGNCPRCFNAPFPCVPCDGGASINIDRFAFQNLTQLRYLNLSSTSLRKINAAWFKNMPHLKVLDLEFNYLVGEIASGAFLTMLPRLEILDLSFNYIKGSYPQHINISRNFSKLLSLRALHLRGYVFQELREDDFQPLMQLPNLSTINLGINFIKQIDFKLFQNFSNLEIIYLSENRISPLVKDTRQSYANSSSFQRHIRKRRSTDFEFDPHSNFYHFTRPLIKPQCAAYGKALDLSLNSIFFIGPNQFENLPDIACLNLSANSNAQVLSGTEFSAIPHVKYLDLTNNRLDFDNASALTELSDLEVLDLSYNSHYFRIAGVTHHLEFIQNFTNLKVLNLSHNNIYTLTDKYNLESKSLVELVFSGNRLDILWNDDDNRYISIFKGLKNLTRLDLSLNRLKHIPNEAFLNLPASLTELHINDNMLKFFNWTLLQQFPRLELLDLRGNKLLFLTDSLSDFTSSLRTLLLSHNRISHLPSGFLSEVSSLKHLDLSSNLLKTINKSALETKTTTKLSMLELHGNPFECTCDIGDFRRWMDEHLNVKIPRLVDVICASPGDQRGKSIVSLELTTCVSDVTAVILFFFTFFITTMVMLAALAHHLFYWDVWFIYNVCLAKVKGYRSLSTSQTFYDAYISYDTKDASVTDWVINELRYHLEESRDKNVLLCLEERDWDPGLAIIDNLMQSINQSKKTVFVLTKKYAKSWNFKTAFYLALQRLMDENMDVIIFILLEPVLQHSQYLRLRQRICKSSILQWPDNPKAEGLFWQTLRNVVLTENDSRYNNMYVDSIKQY
In short: as §1

[1] = HEK-Blue cells overexpressing human TLR9, stimulated with ODN2006 5 nM, read-out: TLR 9 IC50

| SMILES | IC50 (human TLR9) [nM] | IC50 (human TLR9; [1]) [nM] | IC50 (human TLR7) [µM] | IC50 (human TLR8) [µM] |
| --- | --- | --- | --- | --- |
| Cn1c(-c2ccc(S(C)(=O)=O)cc2)nc2cc(F)c(C3CCN(C4CCN(CC5CC5)CC4)CC3)cc21 [Example 224, 6-(1′-(cyclopropylmethyl)-[1,4′-bipiperidin]-4-yl)-5-fluoro-1-methyl-2-(4-(methylsulfonyl)phenyl)-1H-benzo[d]imidazole] | 190 | 192 | 25.7 | > 50 |
| Cn1c(-c2ccc(S(C)(=O)=O)cc2)nc2cc(F)c(C3CCN(C4CCN(C5COC5)CC4)CC3)cc21 [Example 225, 5-fluoro-1-methyl-2-(4-(methylsulfonyl)phenyl)-6-(1′-(oxetan-3-yl)-[1,4′-bipiperidin]-4-yl)-1H-benzo[d]imidazole] | 5400 | 5350 | > 50 | > 50 |
| Cn1c(-c2ccc(S(C)(=O)=O)cc2)nc2cc(F)c(C3CCN(C4CCN(C5CCOCC5)CC4)CC3)cc21 [Example 226, 5-fluoro-1-methyl-2-(4-(methylsulfonyl)phenyl)-6-(1′-(tetrahydro-2H-pyran-4-yl)-[1,4′-bipiperidin]-4-yl)-1H-benzo[d]imidazole] | 900 | 898 | > 50 | > 50 |
| COCCN1CCC(N2CCC(c3cc4c(cc3F)nc(-c3ccc(S(C)(=O)=O)cc3)n4C)CC2)CC1 [Example 227, 5-fluoro-6-(1′-(2-methoxyethyl)-[1,4′-bipiperidin]-4-yl)-1-methyl-2-(4-(methylsulfonyl)phenyl)-1H-benzo[d]imidazole] | 410 | 407 | 27.4 | > 50 |
| Cn1c(-c2ccc(S(C)(=O)=O)cc2)nc2cc(F)c(C3CCN(C4CC5CCC(C4)N5CC4CC4)CC3)cc21 (stereo not drawn) [Example 230, 6-(1-(8-(cyclopropylmethyl)-8-azabicyclo[3.2.1]octan-3-yl)piperidin-4-yl)-5-fluoro-1-methyl-2-(4-(methylsulfonyl)phenyl)-1H-benzo[d]imidazole] | 36 | 36 | 32.4 | > 50 |
| Cn1c(-c2ccc(S(C)(=O)=O)cc2)nc2cc(F)c(C3CCN(C4CC5CCC(C4)N5CC4CC4)CC3)cc21 (stereo not drawn) [Example 231, 6-(1-(8-(cyclopropylmethyl)-8-azabicyclo[3.2.1]octan-3-yl)piperidin-4-yl)-5-fluoro-1-methyl-2-(4-(methylsulfonyl)phenyl)-1H-benzo[d]imidazole] | 58 | 58 | > 50 | > 50 |
| Cn1c(-c2ccc(S(C)(=O)=O)cc2)nc2cc(F)c(C3CCN(C4CC5CCC(C4)N5C4CCC4)CC3)cc21 (stereo not drawn) [Example 232, 6-(1-(8-cyclobutyl-8-azabicyclo[3.2.1]octan-3-yl)piperidin-4-yl)-5-fluoro-1-methyl-2-(4-(methylsulfonyl)phenyl)-1H-benzo[d]imidazole] | 45 | 45 | 22.4 | > 50 |
| Cn1c(-c2ccc(S(C)(=O)=O)cc2)nc2cc(F)c(C3CCN(C4CC5CCC(C4)N5C4CCC4)CC3)cc21 (stereo not drawn) [Example 233, 6-(1-(8-cyclobutyl-8-azabicyclo[3.2.1]octan-3-yl)piperidin-4-yl)-5-fluoro-1-methyl-2-(4-(methylsulfonyl)phenyl)-1H-benzo[d]imidazole] | 58 | 58 | 29 | > 50 |
| Cn1c(-c2ccc(S(C)(=O)=O)cc2)nc2cc(F)c(C3CCN(C4CC5CCC(C4)N5C4CCOCC4)CC3)cc21 (stereo not drawn) [Example 236, 5-fluoro-1-methyl-2-(4-(methylsulfonyl)phenyl)-6-(1-(8-(tetrahydro-2H-pyran-4-yl)-8-azabicyclo[3.2.1]octan-3-yl)piperidin-4-yl)-1H-benzo[d]imidazole] | 99 | 99 | > 50 | > 50 |
